The test system of experiment [1] is human prostate tissues. As to conditions: Hennenberg et al., 2018; cited from earlier work.
For experiment [2], the system named is human prostate tissues. The experiment in a line: organ bath, EFS-induced (neurogenic) contractions of human prostate strips. As to conditions: 32 Hz. An excerpt: Patients who underwent previous transurethral resection of the prostate (TURP) were excluded. […] Informed consent was obtained from all patients. According to the ethical approval, samples and data were collected and analyzed anonymously, so that no data on patients' characteristics were stored. Samples were taken immediately after prostatectomy, following macroscopical examination by an uro-pathologist. […] For macroscopic examination and sampling, the prostate was opened by a single longitudinal cut from the capsule to the urethra. Subsequently, both intersections were checked macroscopically for any obvious tumor infiltration. […] Prostates showing tumors in the periurethral zone in macroscopic inspection were not subjected to sampling and were not included in this study. Organ bath studies were performed immediately after sampling, while samples for molecular analyses were shock frozen in liquid nitrogen and stored at −80° C.
In each single experiment, two from four strips obtained from the same prostate were allocated to the control group (without inhibitor or antagonist), and two others to the inhibitor/antagonist group (resulting in duplicate determination for each group in each single experiment). All four samples of one experiment were examined in four chambers of the same organ bath. Consequently, control and inhibitor curves in each series/diagram were obtained from the same prostates, but different prostates were examined for different series/diagrams. […] Therefore, and considering that prostate tissues from radical prostatectomy may show considerable heterogeneity, statistical comparisons were only performed between groups within the same series (i. e. containing tissues from the same prostates for inhibitor and control group), but not between series obtained from different prostates (i. e., not across different series of organ bath experiments). Only one curve was recorded with each sample, i. e. for one agonist, or for electric field stimulation (EFS).
Subsequently, chambers were washed three times with Krebs-Henseleit solution for a total of 30 min.
Application of EFS simulates action potentials, resulting in the release of endogenous neurotransmitters, including noradrenaline. […] For EFS, tissue strips were placed between two parallel platinum electrodes connected to a CS4 stimulator (Danish Myotechnology). […] EFS-induced contractile responses were studied at frequencies of 2, 4, 8, 16, and 32 Hz, with train intervals of 30 s between stimulations.
Data analyses and calculations were based on maximum peak heights of contractions. For calculation of agonist- or EFS-induced contractions, tensions were expressed as % of KCl-induced contractions, as this may correct different stromal/epithelial ratios, different smooth muscle content, varying degree of BPH, or any other heterogeneity between prostate samples and patients.

The test system of experiment [3] is human prostate tissues. The experiment in a line: organ bath, noradrenaline-induced contractions of human prostate strips. As to conditions: Homo sapiens, 100 μM noradrenaline. As to the method: Human prostate tissues were obtained from patients undergoing radical prostatectomy for prostate cancer (n=107). Patients who underwent previous transurethral resection of the prostate (TURP) were excluded. This study was carried out in accordance with the Declaration of Helsinki of the World Medical Association, and has been approved by the ethics committee of the Ludwig-Maximilians University, Munich, Germany (Ethikkommission bei der LMU Munchen, approval number 19-737). Informed consent was obtained from all patients. According to the ethical approval, samples and data were collected and analyzed anonymously, so that no data on patients' characteristics were stored. Samples were taken immediately after prostatectomy, following macroscopical examination by an uro-pathologist. All tissues were taken from the periurethral zone, considering that most prostate cancers arise in the peripheral zone (Pradidarcheep et al., 2011; Shaikhibrahim et al., 2012). […] BPH is present in 80-83% of patients with prostate cancer (Alcaraz et al., 2009; Orsted and Bojesen, 2013). Typically, such tissues show varying content of prostate-specific antigen (PSA), and different contents of smooth muscle and glandular epithelia, reflecting that BPH is present to different degree (Wang et al., 2016a, 2016c). For macroscopic examination and sampling, the prostate was opened by a single longitudinal cut from the capsule to the urethra. Subsequently, both intersections were checked macroscopically for any obvious tumor infiltration. Because tumors are usually located to the peripheral zone, tumor infiltration in the periurethral zone (where sampling was performed) was very rare (found in less than 1% of prostates). Prostates showing tumors in the periurethral zone in macroscopic inspection were not subjected to sampling and were not included in this study. Organ bath studies were performed immediately after sampling, while samples for molecular analyses were shock frozen in liquid nitrogen and stored at −80° C.
Prostate strips (6×3×3 mm) were mounted in 10 ml aerated (95% 02 and 5% CO2) tissue baths (Danish Myotechnology, Aarhus, Denmark), containing Krebs-Henseleit solution (37° C., pH 7.4) with following composition: 118 mM NaCl, 4.7 mM KCl, 2.55 mM CaCl2), 1.2 mM KH2PO4, 1.2 mM MgSO4, 25 mM NaHCO3, 7.5 mM glucose. In each single experiment, two from four strips obtained from the same prostate were allocated to the control group (without inhibitor or antagonist), and two others to the inhibitor/antagonist group (resulting in duplicate determination for each group in each single experiment). All four samples of one experiment were examined in four chambers of the same organ bath. Consequently, control and inhibitor curves in each series/diagram were obtained from the same prostates, but different prostates were examined for different series/diagrams. […] Only one curve was recorded with each sample, i. e. for one agonist, or for electric field stimulation (EFS).
After mounting in organ bath chambers, preparations were stretched to 4.9 mN and left to equilibrate for 45 min. […] After the equilibration period, maximum contraction induced by 80 mM KCl was assessed. […]

“And” between values parts separate entries of the source, which are not always exact repeats. Equal values may be shown once.

For `COc1ccc(CCNCc2ccc(OCc3ccc(Cl)nc3)c(OC)c2)cc1OC` [SBE 13], the “effect on endothelin-1-induced contractions of human prostate tissues” value with human prostate tissues [1] is listed as “did not change”.

As to `NC(=O)c1sc2c([N+](=O)[O-])cc(C(F)(F)F)cc2[n+]1[O-]` [cyclapolin], in the experiment with human prostate tissues [1], the “effect on endothelin-1-induced contractions of human prostate tissues” value is listed as “did not change”.

Consider `C[C@H](Cc1cc2c(c(C(N)=O)c1)N(CCCO)CC2)NCCOc1ccccc1OCC(F)(F)F` [silodosin, 1-(3-hydroxypropyl)-5-[(2 R)-2-[2-[2-(2,2,2-trifluoroethoxy)phenoxy]ethylamino]propyl]-2,3-dihydroindole-7-carboxamide, reference compound], for which the “inhibition of EFS-induced contraction by add-on of silodosin, compared to onvansertib alone” value in the experiment with human prostate tissues [2] (silodosin 100 nM combined with onvansertib 100 nM) is 68% and 68±12.7%. The inhibition at 0.1 µM stood at 47% in the experiment on human prostate tissues [2] (Homo sapiens, 100 nM silodosin) and 84 ± 4.99% in the experiment with human prostate tissues [3] (100 nM silodosin).

Take `CCOc1ccccc1OCCN[C@H](C)Cc1ccc(OC)c(S(N)(=O)=O)c1` [tamsulosin, 5-[(2 R)-2-[2-(2-ethoxyphenoxy)ethylamino]propyl]-2-methoxybenzenesulfonamide, reference compound]: in the experiment on human prostate tissues [2] (tamsulosin 300 nM combined with onvansertib 100 nM), the “inhibition of EFS-induced contraction by add-on of tamsulosin, compared to onvansertib alone” value was 68% and 68±12.2%. For the same molecule, the inhibition at 0.3 µM in the experiment on human prostate tissues [2] (Homo sapiens, 300 nM tamsulosin) was found to be 48%; in the experiment on human prostate tissues [3] (300 nM tamsulosin), 93 ± 3.5%.
